In patent US20260183411A1, “TARGETING SORTILIN” (priority 2024, published 2026):
Where a SMILES comes first, the peptide text is derived from it.

How the values were obtained:
[1] = Murine plasma stability assay; type: in vitro ADME; settings: mouse, 2 μM, 37° C., read-out: Murine plasma stability assay, T1/2
Protocol: Frozen plasma was thawed at 37° C. and centrifuged at 4000 rpm to remove any clots and transferred to 96-well reaction plates by WuXi AppTec. Test compounds were added to the reaction plate at a final concentration of 2 μM and either stopped immediately or incubated at 37° C. for 5 minutes, 10 minutes, 30 minutes, 60 minutes, or 120 minutes. At the end of incubation, stop solution consisting of 200 ng/mL tolbutamide and 200 ng/mL labetalol in ACN was added to precipitate protein and mixed thoroughly. Samples were then transferred to a bioanalysis plate and shaken for 10 minutes prior to HPLC-MS/MS analysis of percent remaining compound.
Table 14 tabulates the plasma stability for each of the three PDCs tested.

[2] = Murine hematotoxicity assay; type: in vivo, mouse; settings: 3 mg/kg i.v. QW×4, BALB/c mice
Protocol: (§1) Murine hematotoxicity experiments were conducted at Charles River Laboratories and the care and use of animals was conducted in accordance with the regulations of the Association for Assessment and Accreditation of Laboratory Animal Care (AAALAC). Wild type BALB/c, female, 7-8 weeks, weighing approximately 18-22 g were randomized and dosed intravenously with control or test articles at a QW×4 schedule. Dosing volume was adjusted based on body weight and was administered at 10 mL/Kg. PDCs were dissolved in 25 mM Histidine 10% sucrose pH 7 and 3 mg/kg was administered. Free MMAE payload was also tested, and similarly dissolved in 25 mM Histidine 10% sucrose pH 7 and administered to the mice at a dose of […] by i.v. injection at a QW×4 schedule. 3 days following each dose, 150 μL of whole blood was collected via submandibular method and placed in K2 EDTA tubes stored on ice. Blood neutrophil counts were performed on the day of collection by IDEXX labs. Body weights were recorded twice a week until study endpoint.
as §1, with “As outlined in the material” for “Murine hematotoxicity experiments were conducted at Charles River Laboratories”, “methods” for “the care and use”, “Example 1, wild” for “animals was conducted in accordance with the regulations of the Association for Assessment and Accreditation of Laboratory Animal Care (AAALAC). Wild”, “PDCs were dissolved in 25 mM Histidine 10% sucrose pH 7 and 3 mg/kg was administered.” left out

MDA-MB-231 xenograft = experiment: MDA-MB-231 murine xenograft efficacy model; type: in vivo, mouse
Protocol: Murine xenograft experiments were conducted at WuXi AppTec and/or Charles River Laboratories and the care and use of animals was conducted in accordance with the regulations of the Association for Assessment and Accreditation of Laboratory Animal Care (AAALAC). MDA-MB-231 tumor cells (ATCC, Manassas, VA, cat #HTB-26) were grown and maintained in L15 medium supplemented with 10% heat inactivated fetal bovine serum, 1% Antibiotic-Antimycotic, and L-glutamine (2 mM) at 37° C. in an atmosphere in 5% CO2, 95% air. BALB/c Nude, female, 6-8 weeks, weighing approximately 18-22 g were purchased from Vital River Laboratory Animal Technology Co., LTD. Mice were inoculated subcutaneously at the right flank with MDA-MB-231 tumor cells (e.g., triple negative breast cancer cells) (10×10^6) in 0.2 mL of PBS with Matrigel (1:1) for tumor development. Animals were randomized and treatment was started when the average tumor volume reached approximately 150-200 mm^3 for the efficacy study. Dosing volume was adjusted based on body weight and was administered at 10 mL/Kg. […] Free MMAE payload was also tested, and similarly dissolved in 25 mM Histidine 10% sucrose pH 7 and one or more of the following doses, 0.6, 0.06 mg/kg, were administered to the mice i.v. at a QW×4 schedule. Tumor sizes were measured twice weekly in two dimensions using a caliper, and the volume in mm^3 calculated using the formula: V=0.5 a×b^2, where a and b are the long and short diameters of the tumor, respectively. TGI was calculated for each group using the formula: TGI (%)=[1−(Ti−T0)/(Vi−V0)]×100; where Ti is the average tumor volume of a treatment group on a given day, TO is the average tumor volume of the treatment group on the first day of treatment, Vi is the average tumor volume of the vehicle control group on the same day with Ti, and V0 is the average tumor volume of the vehicle group on the first day of treatment.
To characterize the effects of the MMAE payload alone, we included free MMAE at molar equivalency to PDCs, and tested at 0.6 and 0.06 mg/kg, as separate arms.
To characterize the effects of the MMAE payload alone, we included free MMAE at molar equivalency to PDCs, and tested at 0.6 mg/kg.

GAPDH mRNA [3] = experiment: GAPDH mRNA knockdown in differentiated Neuro-2a cells (RT-qPCR); type: cell-based
Protocol: (§2) These GAPDH siRNA-peptide conjugates were then evaluated in HEK293 cells and the neuronal cell line, neuro2A.

GAPDH mRNA [4] = experiment: GAPDH mRNA knockdown in HEK293 cells (RT-qPCR); type: cell-based
Protocol: as §2

Cyno SORT1 = experiment: SPR binding, Cyno SORT1; settings: unconjugated peptide w/conjugation handles
Protocol: SPR analysis was performed on Series S CM5 chips (Cytiva) using a Biacore 8K instrument (Cytiva). Sensorgrams were double-referenced by subtracting the response on both a reference flow cell and a blank sample. Human SORT1 (78-755)-His (Acrobiosystems), human SORT1 (78-755)-His(GenScript), mouse SORT1 (76-753)-His (R&D Systems), rat SORT1 (76-752)-His (GenScript), and cyno SORT1 (76-753)-His (GenScript) were diluted to 20-60 μg/mL in 10 mM sodium acetate pH 4.5 buffer and immobilized onto Series S CM5 chips using amine coupling at a flow rate of 10 μL/min for 45-100 s.
For the single-cycle kinetics analysis runs, a running buffer of 1×PBS pH 7.4, 0.005% Tween-20 was used. Ten start-up cycles and a blank cycle preceded each analysis run. […] The kinetic rate constants (ka and kd) and the equilibrium binding constant (Kd) were calculated using a 1:1 kinetic binding model on the Biacore Insight Evaluation Software (Cytiva).
SPR analysis was performed on Series S CM5 chips (Cytiva) using a Biacore 8K instrument (Cytiva). […] The kinetic rate constants (ka and […]) and the equilibrium binding constant (Kd) were calculated using a 1:1 kinetic binding model on the Biacore Insight Evaluation Software (Cytiva). […] The SORT1 affinities of the conjugates were determined to be peptide 2 conjugate >peptide 1 conjugate >peptide 3 conjugate.

[5] = biological target: T1, SORT1 (Sortilin), Acrobiosystems SON-H52H5 (human, UniProt Q99523 78-755, biotinylated 1:1 with NHS-PEG4 Biotin when immobilised in the protein-loaded GCI format); experiment: fluorescence polarization, direct titration of the FAM-labelled peptide with SORT1
T1 construct: Used in FP, GCI and the peptide microarray; also called SORT1-Ag; SORT1 antigen
T1 sequence (looked up): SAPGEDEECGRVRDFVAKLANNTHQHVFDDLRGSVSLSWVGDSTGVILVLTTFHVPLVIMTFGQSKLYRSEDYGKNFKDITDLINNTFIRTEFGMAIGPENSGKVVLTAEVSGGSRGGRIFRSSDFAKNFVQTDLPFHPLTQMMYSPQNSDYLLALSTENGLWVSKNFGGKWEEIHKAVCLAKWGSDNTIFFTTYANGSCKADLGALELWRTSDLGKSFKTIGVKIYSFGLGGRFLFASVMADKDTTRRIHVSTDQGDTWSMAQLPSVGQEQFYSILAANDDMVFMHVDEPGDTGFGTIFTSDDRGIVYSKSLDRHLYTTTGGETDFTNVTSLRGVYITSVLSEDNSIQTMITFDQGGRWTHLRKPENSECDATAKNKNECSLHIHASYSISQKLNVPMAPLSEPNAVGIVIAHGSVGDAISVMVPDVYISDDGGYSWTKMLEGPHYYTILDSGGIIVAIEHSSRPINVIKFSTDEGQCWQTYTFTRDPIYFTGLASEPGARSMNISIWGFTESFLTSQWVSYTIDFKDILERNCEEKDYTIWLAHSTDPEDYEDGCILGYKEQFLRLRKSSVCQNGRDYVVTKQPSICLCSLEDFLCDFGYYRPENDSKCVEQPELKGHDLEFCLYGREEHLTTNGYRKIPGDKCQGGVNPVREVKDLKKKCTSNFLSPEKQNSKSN
Protocol: A 12-point, two-fold dilution series of target protein was prepared in a V-bottom 96-well plate for a total volume of 25 μL.
A 10× working solution of FAM-labeled peptides was prepared in the FP buffer (1×PBS, pH 7.4, 0.1% Tween-20). An aliquot of 2.5 μL of the 10× working solution of the FAM-labeled peptides was then added to 22.5 μL of the SORT1 dilution series and pipetted to mix in a V-bottom 96-well plate. A negative control with no target protein was also prepared to assess baseline polarization of the FAM-labeled peptides. […] The data was then fitted to a One Site-Specific Binding curve in GraphPad to calculate the KD.

Molecule: CCCC[C@@H]1NC(=O)[C@H](CCCNC(=N)N)NC(=O)[C@H](CCCCNC(=O)CN(C)C(=O)CN(C)C(=O)CN(C)C(=O)CN(C)C(=O)CCNC(=O)CCCC(=O)N[C@H](C(=O)N[C@@H](CCCNC(N)=O)C(=O)Nc2ccc(COC(=O)N(C)[C@H](C(=O)N[C@H](C(=O)N(C)[C@@H]([C@@H](C)CC)[C@@H](CC(=O)N3CCC[C@H]3[C@H](OC)[C@@H](C)C(=O)N[C@H](C)[C@@H](O)c3ccccc3)OC)C(C)C)C(C)C)cc2)C(C)C)NC(=O)[C@H](CC(N)=O)NC(=O)[C@H](CCC(=O)O)NC(=O)[C@@H](NC(=O)[C@H](Cc2c[nH]c3ccccc23)NC(=O)[C@H](CCCNC(=N)N)NC(C)=O)CSSC[C@@H](C(=O)N[C@@H](CCCNC(=N)N)C(=O)N[C@@H](CCC(N)=O)C(=O)N[C@H](C(=O)N[C@@H](CC(C)(C)C)C(=O)O)C(C)(C)C)NC(=O)[C@H]([C@@H](C)O)NC(=O)[C@H](Cc2ccccc2)NC1=O [Arb_cyclic_G23-PDC]
- half-life [1]: 57.4 min
- blood neutrophil counts compared to vehicle or MMAE treatment [2]: reduced neutrophil counts
- tumor growth inhibited relative to vehicle (MDA-MB-231 xenograft; 3 mg/kg i.v. QW×4, day 22): 68%
- body weight loss (Example 8) (MDA-MB-231 xenograft; PDCs 3 mg/kg, free MMAE at molar equivalency (0.6 mg/kg)): body weight loss tracked each other

Molecule: Ac-C(bAla)(Sar)(Sar)(Sar)(Sar)APRWDAPLRDPALRQ(B13)(G48) (CXXXXXAPRWDAPLRDPALRQXX; N-methyl; non-natural residues; cyclised or stapled) [Peptide 2-GAPDH6-SPDP]
- GAPDH mRNA % knockdown compared to untreated cells (GAPDH mRNA [3]; Neuro2a + CQ): 0%
- GAPDH mRNA % knockdown compared to untreated cells (GAPDH mRNA [3]; Neuro2a − CQ): 3%
- GAPDH mRNA % knockdown compared to untreated cells (GAPDH mRNA [4]; HEK293 + CQ): 80%
- GAPDH mRNA % knockdown compared to untreated cells (GAPDH mRNA [4]; HEK293 − CQ (chloroquine)): 0%

Molecule: CC(C)C[C@H](NC(=O)[C@H](C)NC(=O)[C@@H]1CCCN1C(=O)[C@H](CC(=O)O)NC(=O)[C@H](CCCNC(=N)N)NC(=O)[C@H](CC(C)C)NC(=O)[C@@H]1CCCN1C(=O)[C@H](C)NC(=O)[C@H](CC(=O)O)NC(=O)[C@H](Cc1c[nH]c2ccccc12)NC(=O)[C@H](CCCNC(=N)N)NC(=O)[C@@H]1CCCN1C(=O)[C@H](C)N)C(=O)N[C@@H](CCCNC(=N)N)C(=O)N[C@@H](CCC(N)=O)C(=O)N[C@H](C(=O)N[C@@H](CC1CCC1)C(=O)O)C(C)(C)C [SORT1 peptide 2]
- Cyno Ka Kd (Cyno SORT1): 152 pM

Molecule: CCCC[C@@H]1NC(=O)[C@H](CCCNC(=N)N)NC(=O)[C@H](CCCCN)NC(=O)[C@H](CC(N)=O)NC(=O)[C@H](CCC(=O)O)NC(=O)[C@@H](NC(=O)[C@H](Cc2c[nH]c3ccccc23)NC(=O)[C@H](CCCNC(=N)N)NC(C)=O)CSSC[C@@H](C(=O)N[C@@H](CCCNC(=N)N)C(=O)N[C@@H](CCC(N)=O)C(=O)N[C@H](C(=O)N[C@@H](CC(C)(C)C)C(=O)O)C(C)(C)C)NC(=O)[C@H]([C@@H](C)O)NC(=O)[C@H](Cc2ccccc2)NC1=O [SORT1 peptide 3] (HELM PEPTIDE1{[ac].R.W.C.E.N.K.R.[Nle].F.T.C.R.Q.[CC(C)(C)[C@H](N[*:1])C(=O)[*:2]].[CC(C)(C)C[C@H](N[*:1])C(=O)O]}$PEPTIDE1,PEPTIDE1,4:R3-12:R3$$$V2.0; N-terminus and C-terminus assumed)
- Cyno Ka Kd (Cyno SORT1): 191 pM

Molecule: {FAM}-QRLARLPRDLLAWPPAD-OH (also called negative control peptide) [PRGN_scr]
- binding result [5]: no binding
